Test results published in patent US20180153194A1, “AGENT HAVING ANTI-ICE NUCLEATION ACTIVITY” (THE SCHOOL CORPORATION KANSAI UNIVERSITY, priority 2015, published 2018).

Key:
[1] = Anti-ice nucleation active performance (supercooling acceleration), droplet-freezing method of Vali, silver iodide; type: physicochemical; conditions: for anti-ice nucleation activity (in words): 2.0 mM aqueous solution; for improvement in anti-ice nucleation activity level of tri-peptide compared to the mono-amino acid: 2.0 mM
Experimental: Nine hundred microliters of an aqueous solution was prepared by dissolving silver iodide in ultra-pure water to a silver iodide concentration of 1.0 mg/mL.
(§1) A blank sample was prepared by mixing 100 μL of ultra-pure water with 900 μL of the aqueous solution in which silver iodide was dissolved.
The anti-ice nucleation active performance (supercooling acceleration performance) was measured by using the droplet-freezing method of Vali. More specifically, in accordance with the droplet-freezing method of Vali (FIG. 1), an aluminum film was placed on the copper plate of a cold plate chiller (CoolAce CCA-1000, Tokyo Rikakikai Co., Ltd.), and the film was coated with a silicone oil suspension diluted with acetone and chloroform (a solution of acetone:chloroform=1:2). Then, each sample for evaluation or the blank sample was dropped (10 μL each) on 30 points of the surface, the temperature was decreased at a rate of 1.0° C./min, and the temperature at which 50% of the 30 droplets were frozen was considered to be T50.
The droplet-freezing temperature of each sample was referred to as SampleT50, and the droplet-freezing temperature of the blank sample was referred to as BlankT50. Then, the anti-ice nucleation activity level ΔT50 (° C.) was calculated by the following formula:
ΔT50 (° C.)=BlankT50−SampleT50 Formula: […]
(§2) The results are average values of the results of the test performed three times.
as §1
Each sample for evaluation was prepared by mixing 100 μL of the aqueous solutions of Examples 2 and 11 and Comparative Example 10 with 900 μL of the aqueous solution in which silver iodide was dissolved. A blank sample was prepared by mixing 100 μL of ultra-pure water with 900 μL of the aqueous solution in which silver iodide was dissolved.
as §2

[2] = State of tofu after freezing and thawing, and breaking load of tofu; conditions: frozen in liquid nitrogen
Experimental: Silken tofu (1.5 mm (length)×1.5 mm (width)×1.5 mm (height)) was immersed in the solution of Comparative Example 9 (water, blank) or Example 1 (tyrosine dimer) overnight. Thereafter, the tofu was taken out of the solution, the moisture was wiped off, and then the tofu was wrapped with wrap (plastic wrap). The tofu wrapped in plastic wrap was immersed in liquid nitrogen to be quickly frozen. The frozen tofu was then slowly thawed (warmed at 25° C.) or quickly thawed (warmed at 60° C.). […] The breaking load (N) of tofu was measured by a creep meter (RE2-33005C, Yamaden, Co., Ltd.).

Cooling curve of tofu = conditions: for anti-ice nucleation activity towards tofu (in words): cooling curve compared to Comparative Example 9; for Freezing onset temperature / Temperature at which tofu was completely frozen / Time taken for tofu to be completely frozen: tofu immersed overnight, cooled in freezer at −20° C.
Experimental: Silken tofu (1.5 mm (length)×1.5 mm (width)×1.5 mm (height)) that was immersed overnight in the solution of Comparative Example 9 (blank), Example 1 (tyrosine dimer), or Example 2 (tyrosine trimer) was cooled.
A thermocouple thermometer (Horiba) was inserted in tofu, and the temperature was measured every 20 seconds in a freezer at −20° C. A cooling curve was then obtained based on the relationship between the temperature (° C.) and the cooling time (in seconds) (FIG. 9). Table 5 below and FIG. 9 show the temperature at which the tofu began to freeze (freezing onset temperature), the temperature at which the tofu was completely frozen, and the time taken for the tofu to be completely frozen.

Pseudomonas fluorescens = assay: Effect on different kind of ice nucleation active substance, droplet-freezing method of Vali; type: physicochemical; conditions: towards Pseudomonas fluorescens in place of silver iodide; average of three tests
Experimental: The anti-ice nucleation active performance (supercooling acceleration performance) was measured by using the droplet-freezing method of Vali. More specifically, in accordance with the droplet-freezing method of Vali (FIG. 1), an aluminum film was placed on the copper plate of a cold plate chiller (CoolAce CCA-1000, Tokyo Rikakikai Co., Ltd.), and the film was coated with a silicone oil suspension diluted with acetone and chloroform (a solution of acetone:chloroform=1:2). […]
The droplet-freezing temperature of each sample was referred to as SampleT50, and the droplet-freezing temperature of the blank sample was referred to as BlankT50. Then, the anti-ice nucleation activity level ΔT50 (° C.) was calculated by the following formula: […]
A sample for evaluation of Example 1 was prepared in a manner similar to that described in Test Example 1, except that Pseudomonas fluorescens, which is the Pseudomonas bacterium, was used in place of silver iodide, which is an ice nucleation active substance. The anti-ice nucleation active performance (supercooling acceleration performance) was measured by using a test method similar to that described in Test Example 1. […]

[3] = Anti-ice nucleation activity test with respect to biological material (beef liver); conditions: 10 μL, final concentration 0.2 mM, dropped on beef liver; blank ultra-pure water
Experimental: Ten microliters of an aqueous solution in which the aqueous solution of the anti-ice nucleation activator of Example 2 (tyrosine trimer) was diluted 10-fold with ultra-pure water (final concentration: 0.2 mM) was added dropwise on a beef liver (1 mm (length)×1 mm (width)×1 mm (height)). As a blank sample, ultra-pure water was used.
The anti-ice nucleation active performance (supercooling acceleration performance) was measured by using a method similar to the droplet-freezing method of Vali described in Test Example 1. The results are average values of the results of the test performed three times.

[4] = ΔT50 = BlankT50 − SampleT50, 2.0 mM aqueous solution (100 μL) mixed with 900 μL silver iodide 1.0 mg/mL, average of three tests

For `N[C@@H](Cc1ccc(O)cc1)C(=O)O` [Comparative Example 1, tyrosine, reference compound], the “anti-ice nucleation activity (in words)” value ([1]; silver iodide) was “no anti-ice nucleation activity” and the “Anti-ice nucleation activity level” value [1, 4] was 0.3 °C.

For `N[C@@H](Cc1ccccc1)C(=O)O` [Comparative Example 4, phenylalanine, reference compound], the “Anti-ice nucleation activity level” value [1, 4] was 0.5 °C.

With `N[C@@H](CO)C(=O)O` [Comparative Example 6, serine, reference compound] the “Anti-ice nucleation activity level” value [1, 4] was 0.1 °C.

In the case of `C[C@@H](O)[C@H](N)C(=O)O` [Comparative Example 8, threonine, reference compound], the “Anti-ice nucleation activity level” value [1, 4] is reported as 0.1 °C.

With “Phe-Phe-Phe [Comparative Example 3, reference compound]” the “improvement in anti-ice nucleation activity level of tri-peptide compared to the mono-amino acid” value (“improvement … compared to the mono-amino acid” below) ([1]; silver iodide) was “no improvement in the anti-ice nucleation activity level” and the “Anti-ice nucleation activity level” value [1, 4] was 0.3 °C.

With “Ser-Ser-Ser [Comparative Example 5, reference compound]” the “improvement … compared to the mono-amino acid” value ([1]; silver iodide) was “no improvement in the anti-ice nucleation activity level” and the “Anti-ice nucleation activity level” value [1, 4] was 0.4 °C.

With “Thr-Thr-Thr [Comparative Example 7, reference compound]” the “improvement … compared to the mono-amino acid” value ([1]; silver iodide) was “no improvement in the anti-ice nucleation activity level” and the “Anti-ice nucleation activity level” value [1, 4] was −0.3 °C.

With Tyr-Tyr [Example 1] the “Anti-ice nucleation activity level” value [1, 4] was 2.6 °C, the “cavities in the tofu after thawing” value ([2]; slow or quick thawing) was “no cavities were formed” and the “breaking load of the tofu” value ([2]; tofu immersed overnight, slow thawing (25° C.) and quick thawing (60° C.), compared to Comparative Example 9 (water)) was “low”. The “anti-ice nucleation activity towards tofu (in words)” value (Cooling curve of tofu) was “exert anti-ice nucleation activity towards tofu”, the Freezing onset temperature (Cooling curve of tofu) was −1.2° ° C and the “Temperature at which tofu was completely frozen” value (Cooling curve of tofu) was −6.8° ° C. The “Time taken for tofu to be completely frozen” value (Cooling curve of tofu) was 1120 s.

In the case of Tyr-Tyr-Tyr [Example 2], the “anti-ice nucleation activity (in words)” value ([1]; silver iodide) is reported as “highest anti-ice nucleation activity level”, the “improvement … compared to the mono-amino acid” value ([1]; silver iodide) is reported as “significantly improved anti-ice nucleation activity level” and the “anti-ice nucleation active performance (in words)” value ([1]; all concentration levels within 0.1 to 10.0 mM, silver iodide) is reported as “exhibited anti-ice nucleation active performance”. The “Anti-ice nucleation activity level” value [1, 4] was 10.1 °C, the “anti-ice nucleation active performance” value (Pseudomonas fluorescens) was 1.9 °C and the “Anti-ice nucleation activity level” value [3] was 0.6 °C. The “anti-ice nucleation activity towards tofu (in words)” value (Cooling curve of tofu) was “exert anti-ice nucleation activity towards tofu”, the Freezing onset temperature (Cooling curve of tofu) was −0.8° ° C and the “Temperature at which tofu was completely frozen” value (Cooling curve of tofu) was −7.8° ° C. The “Time taken for tofu to be completely frozen” value (Cooling curve of tofu) was 1080 s.

In the case of Tyr-Tyr-Tyr [Example 5], the “Anti-ice nucleation activity level” value ([1]; tyrosine trimer concentration 0.1 mM, silver iodide 1.0 mg/mL) is reported as 2.3 °C.

In the case of Tyr-Tyr-Tyr [Example 6], the “Anti-ice nucleation activity level” value ([1]; tyrosine trimer concentration 0.2 mM, silver iodide 1.0 mg/mL) is reported as 3.7 °C.

With Tyr-Tyr-Tyr [Example 7] the “Anti-ice nucleation activity level” value ([1]; tyrosine trimer concentration 0.5 mM, silver iodide 1.0 mg/mL) was 1.8 °C.

For Tyr-Tyr-Tyr [Example 8], the “Anti-ice nucleation activity level” value ([1]; tyrosine trimer concentration 1.0 mM, silver iodide 1.0 mg/mL) was 5.7 °C.

In the case of Tyr-Tyr-Tyr [Example 9], the “Anti-ice nucleation activity level” value ([1]; tyrosine trimer concentration 5.0 mM, silver iodide 1.0 mg/mL) is reported as 9.2 °C.

With Tyr-Tyr-Tyr [Example 10] the “Anti-ice nucleation activity level” value ([1]; tyrosine trimer concentration 10.0 mM, silver iodide 1.0 mg/mL) was 9.2 °C.

In the case of “Tyr-Tyr-Tyr-Tyr (YYYY; printed: Tyr-Tyr-Tyr-Tyr) [Example 3]”, the “Anti-ice nucleation activity level” value [1, 4] is reported as 1.8 °C.

For “Tyr-Tyr-Tyr-Tyr-Tyr (YYYYY; printed: Tyr-Tyr-Tyr-Tyr-Tyr) [Example 4]”, the “Anti-ice nucleation activity level” value [1, 4] was 1.7 °C.
